Columns and labels:
[1] = tested on: Histone deacetylase (Homo sapiens); experiment: Inhibition of HDAC at 200 uM relative to control
BXPC-3 = experiment: Cytotoxicity against human BxPC3 cells at 5 uM; type: functional; conditions: read-out: GI

| Structure (SMILES) | inhibition [1] | inhibition of growth at 5 µM (BXPC-3) |
| --- | --- | --- |
| CC[C@@H]1NC(=O)[C@H](CCCCNC(C)=O)NC(=O)[C@H]2CCCN2C(=O)[C@H](Cc2ccccc2)N(C)C1=O | 86% | 19% |
| CCC(=O)CCCCC[C@@H]1NC(=O)[C@H]2CCCCN2C(=O)[C@H]([C@@H](C)CC)NC(=O)[C@H](Cc2cn(OC)c3ccccc23)NC1=O [APICIDIN] |  | 98% |
| CC[C@@H]1NC(=O)[C@H](CCCNC(=N)N)NC(=O)[C@H]2CCCCN2C(=O)[C@@H](Cc2ccccc2)NC1=O | 98% | 20% |
| CC[C@@H]1NC(=O)[C@H](CCCNC(=N)N)NC(=O)[C@H]2CCCN2C(=O)[C@@H]2Cc3ccccc3CN2C1=O | 83% | 0% |

Further lines, with some results ahead:

| inhibition [1] | Structure (SMILES) | inhibition of growth at 5 µM (BXPC-3) |
| --- | --- | --- |
| 97% | CC[C@@H]1NC(=O)[C@H](CCCNC(=N)N)NC(=O)[C@H]2CCCN2C(=O)[C@H](Cc2ccccc2)NC1=O | 27% |
| 38% | CC[C@@H]1NC(=O)[C@H](CCCCNC(C)=O)NC(=O)[C@H]2CCCN2C(=O)[C@H](Cc2ccccc2)NC1=O | 38% |
| 97% | CC[C@@H]1NC(=O)[C@H](CCCNC(=N)N)NC(=O)[C@H]2CCCN2C(=O)[C@@H](Cc2ccccc2)NC1=O | 17% |
